# Experimental data published in PubChem BioAssay (NCI).
#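 Growth conditions: 96-well plates. Treatment: test compound, 48 hours, 5 concentrations. Analysis: linear interpolation between bracketing concentrations; unreached endpoints set to highest concentration. TGI is the concentration that stops growth completely.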
# Assays:
# Assay in all cases: inhibition of tumour cell growth, NCI panel, 48 h
# [1] = system: U251 CNS
# [2] = system: HT29 colon
# [3] = system: OVCAR-8 ovarian
# [4] = system: MDA-MB-435
# [5] = system: A498 renal
# [6] = system: A549 NSCLC
# [7] = system: OVCAR-5 ovarian
# [8] = system: OVCAR-4 ovarian
# [9] = system: BT-549 breast
# [10] = system: NCI-H23 lung
# [11] = system: NCI-H460 lung
# [12] = system: RPMI-8226 leukemia
# [13] = system: SN12C renal
# [14] = system: SR leukemia
# [15] = system: UO-31 renal
# [16] = system: HS 578T breast
# [17] = system: UACC-257 melanoma
# [18] = system: MALME-3M melanoma
# [19] = system: OVCAR-3 ovarian
# [20] = system: SF-268 CNS
# [21] = system: LOX IMVI melanoma
# [22] = system: KM12 colon
# [23] = system: TK-10 renal
# [24] = system: NCI-H522 lung
# [25] = system: HOP-92 NSCLC
# [26] = system: MDA-N
# [27] = system: DU-145 prostate
# [28] = system: SK-MEL-28 melanoma
# [29] = system: SK-MEL-2 melanoma
# [30] = system: MOLT-4 leukemia
# [31] = system: COLO 205 colon
# [32] = system: SNB-19 CNS
# [33] = system: HCT-116 colon
# [34] = system: M14 melanoma
# [35] = system: MDA-MB-231 breast
# [36] = system: SW-620 colon
# [37] = system: PC-3 prostate
# [38] = system: HL-60(TB) leukemia
# [39] = system: RXF 393 renal
# [40] = system: MCF7 breast
# [41] = system: SNB-75 CNS
# [42] = system: T-47D breast
# [43] = system: EKVX NSCLC
# [44] = system: SK-MEL-5 melanoma
# [45] = system: IGROV1 ovarian
# [46] = system: NCI-H226 lung
# [47] = system: SF-539 CNS
# [48] = system: HCT-15 colon
# [49] = system: UACC-62 melanoma
# [50] = system: NCI/ADR-RES ovarian
# [51] = system: ACHN renal
# [52] = system: CAKI-1 renal
# [53] = system: HCC-2998 colon
# [54] = system: 786-0 renal
# [55] = system: K-562 leukemia
# [56] = system: SK-OV-3 ovarian
# [57] = system: HOP-62 NSCLC
# [58] = system: SF-295 CNS
# [59] = system: CCRF-CEM leukemia
compound,measurement,setting,value
Cc1cc(-c2nc3cc(F)ccc3s2)ccc1NC(=O)[C@@H](N)CCCCN,TGI,[1],3.89 µM
same,TGI,[2],9.61 µM
same,TGI,[3],11.2 µM
same,TGI,[4],3.69 µM
same,TGI,[5],23.9 µM
same,TGI,[6],3.88 µM
same,TGI,[7],17 µM
same,TGI,[8],22 µM
same,TGI,[9],26.9 µM
same,TGI,[10],4.93 µM
same,TGI,[11],2.24 µM
same,TGI,[12],4.88 µM
same,TGI,[13],26 µM
same,TGI,[14],3.52 µM
same,TGI,[15],13.9 µM
same,TGI,[16],24.7 µM
same,TGI,[17],13.3 µM
same,TGI,[18],33.2 µM
same,TGI,[19],22.5 µM
same,TGI,[20],22.6 µM
same,TGI,[21],3.62 µM
same,TGI,[22],3.36 µM
same,TGI,[23],0.903 µM
same,TGI,[24],21 µM
same,TGI,[25],30.3 µM
same,TGI,[26],3.27 µM
same,TGI,[27],28.4 µM
same,TGI,[28],34.6 µM
same,TGI,[29],8.76 µM
same,TGI,[30],7.24 µM
same,TGI,[31],9.35 µM
same,TGI,[32],28.9 µM
same,TGI,[33],7.67 µM
same,TGI,[34],4.86 µM
same,TGI,[35],10.5 µM
same,TGI,[36],6.04 µM
same,TGI,[37],21.4 µM
same,TGI,[38],6.29 µM
same,TGI,[39],24.2 µM
same,TGI,[40],11.8 µM
same,TGI,[41],4.99 µM
same,TGI,[42],17.3 µM
same,TGI,[43],16.5 µM
same,TGI,[44],27.1 µM
same,TGI,[45],18.3 µM
same,TGI,[46],18.1 µM
same,TGI,[47],9.73 µM
same,TGI,[48],21 µM
same,TGI,[49],23.4 µM
same,TGI,[50],37.2 µM
same,TGI,[51],19.3 µM
same,TGI,[52],20.3 µM
same,TGI,[53],6.85 µM
same,TGI,[54],7.29 µM
same,TGI,[55],5.21 µM
same,TGI,[56],25.7 µM
same,TGI,[57],11 µM
same,TGI,[58],9.62 µM
COc1cccc(CCN2CCN(CCCc3ccccc3)CC2)c1,TGI,[1],> 100 µM
same,TGI,[2],> 100 µM
same,TGI,[3],> 100 µM
same,TGI,[4],> 100 µM
same,TGI,[5],> 100 µM
same,TGI,[6],> 100 µM
same,TGI,[7],> 100 µM
same,TGI,[8],> 100 µM
same,TGI,[9],> 100 µM
same,TGI,[10],> 100 µM
same,TGI,[11],> 100 µM
same,TGI,[59],> 100 µM
same,TGI,[12],> 100 µM
same,TGI,[13],> 100 µM
same,TGI,[14],> 100 µM
same,TGI,[15],> 100 µM
same,TGI,[16],> 100 µM
same,TGI,[17],> 100 µM
same,TGI,[18],> 100 µM
same,TGI,[19],> 100 µM
same,TGI,[20],> 100 µM
same,TGI,[21],> 100 µM
same,TGI,[22],> 100 µM
same,TGI,[23],> 100 µM
same,TGI,[24],67.9 µM
same,TGI,[25],64.4 µM
same,TGI,[26],> 100 µM
same,TGI,[27],> 100 µM
same,TGI,[28],> 100 µM
same,TGI,[29],> 100 µM
same,TGI,[30],> 100 µM
same,TGI,[31],45.2 µM
same,TGI,[32],> 100 µM
same,TGI,[33],> 100 µM
same,TGI,[34],60.6 µM
same,TGI,[35],> 100 µM
same,TGI,[36],> 100 µM
same,TGI,[37],> 100 µM
same,TGI,[38],> 100 µM
same,TGI,[39],> 100 µM
same,TGI,[40],> 100 µM
same,TGI,[41],> 100 µM
same,TGI,[42],> 100 µM
same,TGI,[43],> 100 µM
same,TGI,[44],40.6 µM
same,TGI,[45],> 100 µM
same,TGI,[46],> 100 µM
same,TGI,[47],> 100 µM
same,TGI,[48],> 100 µM
same,TGI,[49],> 100 µM
same,TGI,[50],> 100 µM
same,TGI,[51],> 100 µM
same,TGI,[52],> 100 µM
same,TGI,[53],> 100 µM
same,TGI,[54],> 100 µM
same,TGI,[55],> 100 µM
same,TGI,[56],> 100 µM
same,TGI,[57],> 100 µM
same,TGI,[58],> 100 µM
